{"source": "patent US7795207B2", "about": "“Lipopeptide compositions” (priority 2005, dated 2010)", "key": {"fresh venal human blood": {"tested_on": "fresh venal human blood", "settings": "for Reduction of the hemolysis in %: lipopeptide 1,600 mg/l in presence of 2.5% SBE-β-CD"}, "canine blood": {"tested_on": "canine blood", "test": "Hemolysis test with venal canine blood", "format": "cell-based", "settings": "molar ratio SBE-β-CD:friulimicin B 2.5:1", "protocol": "Ca2Cl2 friulimicin B was dissolved in 0.9% NaCl solution with and without addition of SBE-β-CD. In the batch with SBE-β-CD there was a molar ratio (SBE-β-CD:friulimicin B) of 2.5:1. […] Statements of the content of Ca2Cl2 friulimicin B (in mg/l) refer to the final concentrations of the free acid of the friulimicin B in the reaction batch. The statements of the molar ratio refer to the free acids of friulimicin B and SBE-β-CD, respectively."}, "[1]": {"tested_on": "Staphylococcus aureus ATCC 29213", "test": "Minimum inhibitory concentration (agar dilution, CLSI)", "format": "cell-based", "method": "(§1) The effects of cyclodextrins on the antibiotic activity von Ca2Cl2 friulimicin B were investigated by in vitro experiments about the growth inhibition of Gram-positive bacteria. Herein, the minimum inhibitory concentration for the growth inhibition was determined by cultivation of the bacteria on nutritious agar (agar dilution) according to the CLSI (previously NCCLS) rules (National Committee for Clinical Laboratory Standards. 2003. Methods for dilution antimicrobial susceptibility tests for bacteria that grow aerobically; approved standard—6th ed. Document M7-A6. Clinical and Laboratory Standards Institute, Wayne, Pa., USA). Different molar mixture ratios of the lipopeptide Ca2Cl2 friulimicin B were tested with SBE-β-CD in Ca ions-adjusted Müller-Hinton medium. The Gram-positive strains tested for the cultivation methods were: • Staphylococcus carnosus ATCC 51365 {DSM 20501) • Staphylococcus aureus ATCC 29213 (DSM 2569) • Staphylococcus aureus ATCC 33592 (DSM 11729) • Staphylococcus epidermidis ATCC 12228 (DSM 1798)"}, "[2]": {"tested_on": "Staphylococcus aureus ATCC 33592", "test": "Minimum inhibitory concentration (agar dilution, CLSI)", "format": "cell-based", "method": "as §1"}, "[3]": {"tested_on": "Staphylococcus carnosus ATCC 51365", "test": "Minimum inhibitory concentration (agar dilution, CLSI)", "format": "cell-based", "method": "as §1"}, "[4]": {"tested_on": "Staphylococcus epidermidis ATCC 12228", "test": "Minimum inhibitory concentration (agar dilution, CLSI)", "format": "cell-based", "method": "as §1"}, "[5]": {"tested_on": "Streptococcus pneumoniae L3TV", "test": "Intranasal lung infection model in the mouse", "format": "in vivo", "settings": "mice, total dose 20 mg/kg subcutaneously 1 and 4 hours after infection; SBE-β-CD:friulimicin B 2.5:1; Mann Whitney Test p=0.0159", "method": "Herein, Ca2Cl2 friulimicin B serves as an example molecule for the antibiotics of the class of the lipopeptides and sulfobutylether-β-cyclodextrin (SBE-β-CD) as examples for modified β-cyclodextrins. Shown are the results of a study with an intranasal lung infection model in the mouse.\nFemale mice (CFW-1 (Harlan Winkelmann, Germany)) were infected intranasally with Streptococcus pneumoniae L3TV (1*10^6 CFU/mouse). 1 and 4 hours after the infection, the animals were subcutaneously administered a total dose of 20 mg Ca2Cl2 friulimicin B/kg with and without SBE-BCD (5%). 24-hours after the infection, a determination of the number of germs in the lung was performed by plating-out of a tissue disintegration on agar plates in a manner the person skilled in the art is familiar with."}, "Female mice (CFW-1)": {"tested_on": "Female mice (CFW-1)", "test": "Acute toxicity in mice after one-time iv administration", "format": "in vivo", "method": "Female mice (CFW-1 (Harlan Winkelmann, Germany)) were administered once (iv) the Ca2Cl2 friulimicin B solutions with and without SBE-β-CD. The mortality rate of the animals within 24 hours was determined."}, "E. faecalis ATCC 29212": {"tested_on": "E. faecalis ATCC 29212", "test": "Minimum inhibitory concentration in presence of HSA", "format": "cell-based, Enterococcus faecalis"}, "[6]": {"settings": "literature (Oleson et al. 2000); cited from earlier work"}, "[7]": {"settings": "literature; cited from earlier work"}, "[8]": {"settings": "molar ratio Friulimicin:SBE-β-CD 1:0"}, "[9]": {"settings": "molar ratio Friulimicin:SBE-β-CD 1:2.5"}, "[10]": {"settings": "molar ratio Friulimicin:SBE-β-CD 1:4"}}, "data": [{"molecule": "CCC(C)CCCCCC=CCC(=O)NC(CC(=O)O)C(=O)NC1C(=O)N2CCCCC2C(=O)NC(C(C)C(=O)O)C(=O)NC(CC(=O)O)C(=O)NCC(=O)NC(CC(=O)O)C(=O)NCC(=O)NC(C(C)N)C(=O)NC(C(C)C)C(=O)N2CCCC2C(=O)NC1C", "note": "(stereo not drawn) [Amphomycin, reference compound]", "values": [{"measurement": "Reduction of the hemolysis in %", "setting": "fresh venal human blood", "result": 99.6, "unit": "%"}]}, {"molecule": "CCCCCCCCCCCCCCCCCC(=O)NC(CC(N)=O)C(=O)NC1C(=O)N2CCCCC2C(=O)NC(C(C)C(=O)O)C(=O)NC(CC(=O)O)C(=O)NCC(=O)NC(CC(=O)O)C(=O)NCC(=O)NC(C(C)N)C(=O)NC(C(C)C)C(=O)N2CCCC2C(=O)NC1C", "note": "(stereo not drawn) [CBS000203]", "values": [{"measurement": "Reduction of the hemolysis in %", "setting": "fresh venal human blood", "result": 41.3, "unit": "%"}]}, {"molecule": "CCCCC/C=C\\C/C=C\\C/C=C\\CCCCC(=O)NC(CC(N)=O)C(=O)NC1C(=O)N2CCCCC2C(=O)NC(C(C)C(=O)O)C(=O)NC(CC(=O)O)C(=O)NCC(=O)NC(CC(=O)O)C(=O)NCC(=O)NC(C(C)N)C(=O)NC(C(C)C)C(=O)N2CCCC2C(=O)NC1C", "note": "(stereo not drawn) [CBS000204]", "values": [{"measurement": "Reduction of the hemolysis in %", "setting": "fresh venal human blood", "result": 87.0, "unit": "%"}]}, {"molecule": "CC(C)C1NC(=O)C(C(C)N)NC(=O)CNC(=O)C(CC(=O)O)NC(=O)CNC(=O)C(CC(=O)O)NC(=O)C(C(C)C(=O)O)NC(=O)C2CCCCN2C(=O)C(NC(=O)C(CC(N)=O)NC(=O)c2ccc(CCc3ccc(CCc4ccccc4)cc3)cc2)C(C)NC(=O)C2CCCN2C1=O", "note": "(stereo not drawn) [CBS000217]", "values": [{"measurement": "Reduction of the hemolysis in %", "setting": "fresh venal human blood", "result": 99.5, "unit": "%"}]}, {"molecule": "CC(C)CCCCCCC/C=C\\CC(=O)N[C@@H](CC(N)=O)C(=O)N[C@@H]1C(=O)N2CCCC[C@@H]2C(=O)N[C@@H]([C@H](C)C(=O)O)C(=O)N[C@@H](CC(=O)O)C(=O)NCC(=O)N[C@@H](CC(=O)O)C(=O)NCC(=O)N[C@H]([C@H](C)N)C(=O)N[C@@H](C(C)C)C(=O)N2CCC[C@H]2C(=O)N[C@@H]1C", "note": "[Ca2Cl2 friulimicin B, friulimicin B]", "values": [{"measurement": "Reduction of the hemolysis by the addition of SBE-β-CD", "setting": "canine blood; friulimicin B 800 mg/l", "result": 55, "unit": "%"}, {"measurement": "Reduction of the hemolysis by the addition of SBE-β-CD", "setting": "canine blood; friulimicin B 5,000 mg/l", "result": 100, "unit": "%"}, {"measurement": "Antibiotic activity (MIC)", "setting": "[1]; [8]", "result": 0.5, "unit": "µg/mL"}, {"measurement": "Antibiotic activity (MIC)", "setting": "[1]; [9]", "result": 0.5, "unit": "µg/mL"}, {"measurement": "Antibiotic activity (MIC)", "setting": "[1]; [10]", "result": 0.5, "unit": "µg/mL"}, {"measurement": "Antibiotic activity (MIC)", "setting": "[2]; [8]", "result": 1, "unit": "µg/mL"}, {"measurement": "Antibiotic activity (MIC)", "setting": "[2]; [9]", "result": 1, "unit": "µg/mL"}, {"measurement": "Antibiotic activity (MIC)", "setting": "[2]; [10]", "result": 1, "unit": "µg/mL"}, {"measurement": "Antibiotic activity (MIC)", "setting": "[3]; [8]", "result": 0.5, "unit": "µg/mL"}, {"measurement": "Antibiotic activity (MIC)", "setting": "[3]; [9]", "result": 0.5, "unit": "µg/mL"}, {"measurement": "Antibiotic activity (MIC)", "setting": "[3]; [10]", "result": 0.5, "unit": "µg/mL"}, {"measurement": "Antibiotic activity (MIC)", "setting": "[4]; [8]", "result": 0.5, "unit": "µg/mL"}, {"measurement": "Antibiotic activity (MIC)", "setting": "[4]; [9]", "result": 0.5, "unit": "µg/mL"}, {"measurement": "Antibiotic activity (MIC)", "setting": "[4]; [10]", "result": 0.5, "unit": "µg/mL"}, {"measurement": "Antibiotic effect (number of germs in the lung 24 hours after infection), with vs without SBE-β-CD", "setting": "[5]", "result": "increases the antibiotic effect"}, {"measurement": "Mortality rate within 24 hours", "setting": "Female mice (CFW-1); 300 mg/kg iv once, with addition of SBE-β-CD (molar ratio 2.5:1)", "result": "0% (0/3)"}, {"measurement": "Mortality rate within 24 hours", "setting": "Female mice (CFW-1); 300 mg/kg iv once, without addition of SBE-β-CD", "result": "0% (0/3)"}, {"measurement": "Mortality rate within 24 hours", "setting": "Female mice (CFW-1); 350 mg/kg iv once, without addition of SBE-β-CD", "result": "66% (2/3)"}, {"measurement": "Mortality rate within 24 hours", "setting": "Female mice (CFW-1); 400 mg/kg iv once, with addition of SBE-β-CD (molar ratio 2.5:1)", "result": "0% (0/3)"}, {"measurement": "Mortality rate within 24 hours", "setting": "Female mice (CFW-1); 400 mg/kg iv once, without addition of SBE-β-CD", "result": "100% (3/3)"}, {"measurement": "Effect of HP-β-CD on the induced hemolysis", "setting": "fresh venal human blood", "result": "suppress"}]}, {"molecule": "CC(C)CCCCCCC/C=C\\CC(=O)N[C@@H](CC(N)=O)C(=O)N[C@@H]1C(=O)N2CCCC[C@@H]2C(=O)N[C@@H]([C@H](C)C(=O)O)C(=O)N[C@@H](CC(=O)O)C(=O)NCC(=O)N[C@@H](CC(=O)O)C(=O)NCC(=O)N[C@H]([C@H](C)N)C(=O)N[C@@H](C(C)C)C(=O)N2CCC[C@H]2C(=O)N[C@@H]1C", "note": "[Na2 friulimicin B, friulimicin B]", "values": [{"measurement": "MIC value", "setting": "[1]; medium addition 0% HSA", "result": 2, "unit": "µg/mL"}, {"measurement": "MIC value", "setting": "[1]; medium addition 4% HSA", "result": 8, "unit": "µg/mL"}, {"measurement": "MIC value", "setting": "E. faecalis ATCC 29212; medium addition 0% HSA", "result": 4, "unit": "µg/mL"}, {"measurement": "MIC value", "setting": "E. faecalis ATCC 29212; medium addition 4% HSA", "result": ">64", "unit": "µg/mL"}]}, {"molecule": "CCCCCCCCCC(=O)N[C@@H](Cc1c[nH]c2ccccc12)C(=O)N[C@H](CC(N)=O)C(=O)N[C@@H](CC(=O)O)C(=O)N[C@@H]1C(=O)NCC(=O)N[C@@H](CCCN)C(=O)N[C@@H](CC(=O)O)C(=O)N[C@H](C)C(=O)N[C@@H](CC(=O)O)C(=O)NCC(=O)N[C@H](CO)C(=O)N[C@@H]([C@H](C)CC(=O)O)C(=O)N[C@@H](CC(=O)c2ccccc2N)C(=O)O[C@@H]1C", "note": "[daptomycin]", "values": [{"measurement": "Toxicity on the skeletal muscle", "setting": "[6]", "result": "damages the skeletal muscle"}]}, {"molecule": "iturin A", "values": [{"measurement": "Hemolytic action", "setting": "[7]", "result": "act in a hemolytic manner"}]}, {"molecule": "lichenysin", "values": [{"measurement": "Hemolytic action", "setting": "[7]", "result": "act in a hemolytic manner"}]}, {"molecule": "surfactin A", "values": [{"measurement": "Hemolytic action", "setting": "[7]", "result": "act in a hemolytic manner"}]}]}
